Source: ChEMBL document CHEMBL4334483, “STING modulators: Predictive significance in drug discovery” (Eur J Med Chem, 2019)
pEC50, pIC50: −log10 of the molar value. Blank lines part the entries; values can stand above or below the compound they belong to.

Key:
[1] = target: Stimulator of interferon genes protein (Homo sapiens, UniProt Q86WV6); experiment: Induction of STING in human PBMC assessed as increase in IFNbeta secretion
[2] = target: T1, Serine/threonine-protein kinase TBK1 (Homo sapiens, UniProt Q9UHD2); experiment: Induction of TBK1 in human PBMC assessed as increase in […]
T1 sequence (Q9UHD2 whole entry): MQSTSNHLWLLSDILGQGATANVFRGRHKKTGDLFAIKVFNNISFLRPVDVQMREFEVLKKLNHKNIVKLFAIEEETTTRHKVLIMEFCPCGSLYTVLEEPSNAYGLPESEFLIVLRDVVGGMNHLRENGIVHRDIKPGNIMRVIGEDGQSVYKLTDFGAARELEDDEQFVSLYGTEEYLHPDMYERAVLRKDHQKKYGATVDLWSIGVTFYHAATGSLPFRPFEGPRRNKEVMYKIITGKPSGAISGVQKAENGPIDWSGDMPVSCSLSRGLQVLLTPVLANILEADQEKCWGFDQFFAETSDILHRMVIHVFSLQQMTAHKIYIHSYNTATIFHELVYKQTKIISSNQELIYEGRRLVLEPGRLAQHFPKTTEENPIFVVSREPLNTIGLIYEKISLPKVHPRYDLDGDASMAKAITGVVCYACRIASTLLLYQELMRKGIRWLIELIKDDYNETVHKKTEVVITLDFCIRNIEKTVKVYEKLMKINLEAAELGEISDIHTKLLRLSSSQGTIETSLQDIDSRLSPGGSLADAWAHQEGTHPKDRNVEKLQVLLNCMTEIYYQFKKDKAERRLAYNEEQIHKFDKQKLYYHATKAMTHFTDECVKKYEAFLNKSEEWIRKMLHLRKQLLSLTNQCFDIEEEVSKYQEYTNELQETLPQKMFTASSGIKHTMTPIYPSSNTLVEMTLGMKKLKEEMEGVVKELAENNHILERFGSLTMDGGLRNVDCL

Homo sapiens = species on record: Homo sapiens; experiment: Selectivity index, ratio of EC50(app) for TBK1 in human PBMC […] in human PBMC
[3] = Inhibition of STING R232 mutant in mouse MEF cells assessed as increase in IFNbeta secretion

Stimulator of interferon genes protein, sequence (Q86WV6 whole entry): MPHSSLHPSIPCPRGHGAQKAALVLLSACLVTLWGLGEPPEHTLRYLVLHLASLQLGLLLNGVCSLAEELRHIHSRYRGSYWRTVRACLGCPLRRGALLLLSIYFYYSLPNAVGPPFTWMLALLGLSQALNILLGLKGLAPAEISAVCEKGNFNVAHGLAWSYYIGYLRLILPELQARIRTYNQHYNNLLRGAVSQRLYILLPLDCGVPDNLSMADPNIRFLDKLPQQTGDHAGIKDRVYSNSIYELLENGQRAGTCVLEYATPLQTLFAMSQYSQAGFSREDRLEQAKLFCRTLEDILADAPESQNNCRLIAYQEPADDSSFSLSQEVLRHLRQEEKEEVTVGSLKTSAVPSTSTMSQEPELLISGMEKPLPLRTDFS

pEC50 [1]: 5.51 | pEC50 [2]: 4.27
SMILES: CCn1nc(C)cc1C(=O)Nc1nc2cc(C(N)=O)ccc2n1CCCCn1c(NC(=O)c2cc(C)nn2CC)nc2cc(C(N)=O)ccc21

Ratio EC50 (Homo sapiens): 18
SMILES: CCn1nc(C)cc1C(=O)/N=c1\[nH]c2cc(C(N)=O)ccc2n1CCCCn1/c(=N/C(=O)c2cc(C)nn2CC)[nH]c2cc(C(N)=O)ccc21

SMILES: CC[C@@H]1NC(=O)[C@@H]2[C@H](Cl)[C@H](Cl)CN2C(=O)[C@H](CC)NC(=O)C[C@H](c2ccccc2)NC(=O)[C@H](CO)NC1=O
pIC50 [3]: 5.47
